Results as given in US5116981A, “Antiinflammatory leukotriene B4 analogs” (The Upjohn Company, priority 1989, dated 1992).

Tests used:
[1] = test system: chemotactic response of equimolar concentrations of LTB4; conditions: cited from earlier work
[2] = stability of the isolated product on storage; format: physicochemical; conditions: for stability of the neat isolated product: as isolated oil; for stability in solution: methanol solution
[3] = test system: neutrophil; conditions: cited from earlier work

| Compound | stability of the neat isolated product [2] | stability in solution [2] | also measured |
| --- | --- | --- | --- |
| CCCCC/C=C\C[C@H](/C=C/C=C/C=C\[C@H](CCCC(=O)O)OC(C)=O)OC(C)=O [LTB4 diacetate] |  |  | inhibition of chemotactic response to LTB4 [1]: competitively inhibit chemotactic response |
| CCCCC/C=C\CC(O)/C=C/c1cccc(CC(O)CCCC(=O)O)n1 (stereo not shown) [Example 35, 2-Pyridinehexanoic acid, delta-hydroxy-6-(3-hydroxy-1,5-undecadienyl) -] | unstable oil | stable methanol solution |  |
| CCCCC/C=C\CC(O)C#Cc1cccc(CC(O)CCCC(=O)O)c1 (stereo not shown) [Example 24, Benzenehexanoic acid, delta-hydroxy-3-[(3-hydroxy-5-undecen-1-ynyl)]] |  | stable as a methanol solution |  |
| CCCCC/C=C\CC(O)C#Cc1cccc(CC(O)CCCC(=O)O)n1 (stereo not shown) [Example 36, 2-Pyridinehexanoic acid, delta-hydroxy-6-(3-hydroxy-5-undecen-1-ynyl)-] | unstable pale oil |  |  |
| CCCCCC=CCC(O)C=CC=CC=CC(O)CCCC(=O)N(C)C (stereo not shown) [dimethylamide of LTB4] |  |  | agonist activity ([3]; at the concentrations that inhibit degranulation): no appreciable agonist activity; inhibition of neutrophil degranulation induced by LTB4 [3]: inhibit neutrophil degranulation induced by LTB4 |
